{
  "source": "patent US20220279780A1",
  "about": "“AGRICULTURAL FORMULATION” (ISHIHARA SANGYO KAISHA, LTD., priority 2019, published 2022)",
  "origin": "cited, not measured here",
  "data": [
    {"smiles": "N#CCNC(=O)c1cnccc1C(F)(F)F", "note": "[flonicamid]", "values": [
      {"measurement": "water solubility", "value": "5,200 ppm"}
    ]}
  ]
}
